Reference: PMC3968014, “Design and Synthesis of a Library of Lead-Like 2,4-Bisheterocyclic Substituted Thiophenes as Selective Dyrk/Clk Inhibitors” (PLoS ONE, 2014)
“And” between values parts separate entries of the source, which are not always exact repeats. Identical values can stand only once.

Key:
Dyrk1A = biological target: T1, Dyrk1A (Homo sapiens, UniProt Q13627); experiment: Dyrk1A kinase assay (32P-ATP, Woodtide); assay type: biochemical; details: for IC50: 100 µM ATP; for inhibition at 5 µM: read-out: percentage of inhibition Dyrk1A; for inhibition at 5 µM / percentage of inhibition Dyrk1A: at 5 µM
T1 construct: encoding the catalytic domain of human Dyrk1A; thrombin cleavage site (N); made in house; host or cells: Escherichia coli BL21(DE3) with pRARE

CK2α = biological target: T2, CK2α (Homo sapiens, UniProt P68400); experiment: CK2α kinase assay (counter screen); assay type: biochemical; details: read-out: percentage of inhibition CK2α
T2 construct: purchased Life Technologies (Invitrogen SelectScreen); Dyrk1A, Dyrk2 and CK2α in-house or gifts
Method: Dyrk1A, Dyrk1B, Dyrk2, CK2α and Clk1 kinase reactions were performed in a reaction buffer containing 50 mM Tris/HCl, pH 7.4, 0.1 mM EGTA, 0.5 mM DTT, 10 mM MgCl2, 100 µM ATP and 0.33 µM [γ-^32ATP] as well as the appropriate substrate peptides, which were 100 µM Woodtide for the Dyrk isoforms ([…]-NH2), 60 µM CK2 substrate peptide ([…]-NH2, from Millipore) for CK2α or RS repeat peptide ([…]) for Clk1. The CK2α protein was a kind gift of M. Montenarh (Homburg). The kinase reactions were performed at 30°C for 15 min and terminated by spotting 5 µL of the reaction mixture onto a P81 phosphocellulose membrane (Whatman). The membrane was washed four times with 0.3% phosphoric acid and one time with acetone and dried. The dry membrane was exposed in a cassette to a Phosphor Screen Imaging Plate (FujiFilm) and the signals detected by scanning of the imaging plate in a Fuji FLA-3000 PhosphoImager. The spots were quantified using AIDA software (Raytest, Version 3.52) to determine the activities of the kinases in the assay reactions. […] IC50 values were calculated by fitting the data with Origin Pro 8.6 (OriginLabs). The calculated IC50 values are representative of at least two independent determinations.

Dyrk1B = biological target: T3, Dyrk1B (Homo sapiens, UniProt Q9Y463); experiment: Dyrk1B kinase assay (32P-ATP, Woodtide); assay type: biochemical; details: for IC50: 100 µM ATP; for inhibition at 1 µM / inhibition at 5 µM: read-out: percentage of inhibition Dyrk1B; for percentage of inhibition Dyrk1B / inhibition at 5 µM: at 5 µM
T3 construct: purchased Life Technologies PV4649 (LOT # 877059G)

Dyrk2 = biological target: T4, Dyrk2 (Homo sapiens, UniProt Q92630); experiment: Dyrk2 kinase assay (32P-ATP, Woodtide); assay type: biochemical; details: for IC50: 100 µM ATP, read-out: IC50 Dyrk2; for inhibition at 1 µM / inhibition at 5 µM: read-out: percentage of inhibition Dyrk2
T4 construct: made in house; host or cells: Escherichia coli BL21(DE3) with pRARE; plasmid pGEX-2TK-Dyrk2 (gift from W. Becker, Aachen)
T4 sequence (Q92630 1-601): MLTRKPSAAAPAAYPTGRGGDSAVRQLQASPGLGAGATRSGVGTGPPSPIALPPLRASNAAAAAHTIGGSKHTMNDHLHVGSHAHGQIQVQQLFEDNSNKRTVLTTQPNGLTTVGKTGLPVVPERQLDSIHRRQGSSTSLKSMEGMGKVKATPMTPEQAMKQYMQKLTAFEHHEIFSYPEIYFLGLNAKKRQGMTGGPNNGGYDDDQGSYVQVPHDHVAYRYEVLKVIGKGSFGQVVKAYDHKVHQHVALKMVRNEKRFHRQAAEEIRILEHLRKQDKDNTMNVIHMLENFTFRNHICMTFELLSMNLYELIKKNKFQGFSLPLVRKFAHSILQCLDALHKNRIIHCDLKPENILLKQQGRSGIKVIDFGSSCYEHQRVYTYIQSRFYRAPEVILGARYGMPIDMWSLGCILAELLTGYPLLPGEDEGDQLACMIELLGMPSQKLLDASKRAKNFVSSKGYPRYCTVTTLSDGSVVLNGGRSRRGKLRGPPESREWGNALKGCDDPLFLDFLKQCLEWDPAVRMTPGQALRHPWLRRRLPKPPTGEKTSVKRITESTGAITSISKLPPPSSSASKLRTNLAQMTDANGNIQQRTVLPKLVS

T2 sequence (P68400 whole entry): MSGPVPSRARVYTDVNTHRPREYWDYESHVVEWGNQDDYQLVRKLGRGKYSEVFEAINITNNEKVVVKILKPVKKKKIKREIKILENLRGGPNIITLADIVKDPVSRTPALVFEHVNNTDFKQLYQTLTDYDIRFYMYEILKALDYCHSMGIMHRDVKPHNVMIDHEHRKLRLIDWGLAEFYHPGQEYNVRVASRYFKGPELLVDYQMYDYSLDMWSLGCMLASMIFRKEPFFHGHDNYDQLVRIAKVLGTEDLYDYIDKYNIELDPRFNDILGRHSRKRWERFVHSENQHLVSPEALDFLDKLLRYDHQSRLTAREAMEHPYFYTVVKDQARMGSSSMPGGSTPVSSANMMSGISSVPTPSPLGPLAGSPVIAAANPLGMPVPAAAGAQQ
T3 sequence (Q9Y463 whole entry): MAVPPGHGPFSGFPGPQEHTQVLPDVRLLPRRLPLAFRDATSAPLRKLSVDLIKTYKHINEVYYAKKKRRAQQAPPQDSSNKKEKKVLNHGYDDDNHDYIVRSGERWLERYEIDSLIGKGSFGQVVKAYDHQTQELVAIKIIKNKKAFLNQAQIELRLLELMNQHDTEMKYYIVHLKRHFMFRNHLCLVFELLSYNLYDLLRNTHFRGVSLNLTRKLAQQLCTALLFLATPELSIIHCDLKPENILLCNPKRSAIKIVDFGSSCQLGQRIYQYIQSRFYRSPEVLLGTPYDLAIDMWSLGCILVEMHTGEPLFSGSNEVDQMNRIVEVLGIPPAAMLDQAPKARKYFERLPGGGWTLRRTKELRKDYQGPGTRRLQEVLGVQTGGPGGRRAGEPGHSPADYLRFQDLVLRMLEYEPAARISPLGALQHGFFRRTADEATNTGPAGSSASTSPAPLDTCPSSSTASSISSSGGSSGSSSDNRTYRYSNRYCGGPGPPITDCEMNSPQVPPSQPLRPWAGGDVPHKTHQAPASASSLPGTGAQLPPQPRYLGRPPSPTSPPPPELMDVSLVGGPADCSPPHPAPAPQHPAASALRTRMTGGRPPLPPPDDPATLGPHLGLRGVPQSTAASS

| Compound | IC50 (Dyrk1A) | inhibition at 5 µM (CK2α) | inhibition at 5 µM (Dyrk1A) | IC50 (Dyrk1B) | IC50 (Dyrk2) | inhibition at 5 µM (Dyrk2; at 5 µM) | also measured |
| --- | --- | --- | --- | --- | --- | --- | --- |
| Cc1cc(-c2csc(-c3cccc(O)c3)c2)ccc1O [Compound 1] | 2000 nM | 15% | – | – | – | – | – |
| Cc1cc(O)cc(-c2csc(-c3cccc(O)c3)c2)c1 [Compound 2] | – | – | 10% | – | – | – | – |
| Cc1ccncc1-c1csc(-c2cccnc2)c1 [Compound 6] | 4400 nM | 0% | – | 8000 nM | – | – | inhibition at 1 µM (Dyrk2): 10% |
| Cc1ccc(-c2csc(-c3cccnc3)c2)cn1 [Compound 7] | 4700 nM | 0% | – | 3400 nM | 1600 nM | – | – |
| COc1ccc(-c2csc(-c3cccnc3)c2)cn1 [Compound 9] | – | 0% | – | 34000 nM | – | – | percentage of inhibition Dyrk2 (Dyrk2; at 5 µM): No inhibition |
| Cc1cc(-c2csc(-c3cccnc3)c2)ccn1 [Compound 12] | – | – | 23% | – | – | 37.5% | percentage of inhibition Dyrk1B (Dyrk1B): No inhibition |
| COC(=O)c1cncc(-c2csc(-c3cccnc3)c2)c1 [Compound 18] | 1200 nM | 14% | – | 1700 nM | 1500 nM | – | – |
| NC(=O)c1cncc(-c2csc(-c3cccnc3)c2)c1 [Compound 19, 5-[5-(pyridin-3-yl)thiophen-3-yl]pyridine-3-carboxamide] | 900 nM | 4.2% | – | 1500 nM | 300 nM | – | melting point: 217 to 218 °C |
| c1cncc(-c2cc(-c3cnc4ccccc4c3)cs2)c1 [Compound 20] | 1100 nM | 27% | – | 900 nM | 1800 nM | – | – |
| c1cncc(-c2cc(-c3cncc4ccccc34)cs2)c1 [Compound 21] | 3500 nM | 6% | – | 3200 nM | 2900 nM | – | – |
| c1cncc(-c2cc(-c3cncnc3)cs2)c1 [Compound 22] | 1800 nM | 0% | – | 3500 nM | 1800 nM | – | – |
| Nc1cc(-c2csc(-c3cccnc3)c2)cnc1Cl [Compound 23] | 1300 nM | 0% | – | 1400 nM | 300 nM | – | – |
| Cn1cnc2cc(-c3csc(-c4cccnc4)c3)cnc21 [Compound 24] | – | 7% | 37% | – | 630 nM and 600 nM | – | inhibition at 1 µM (Dyrk1B): 13% |
| [O-][n+]1cccc(-c2csc(-c3cccnc3)c2)c1 [Compound 25] | – | – | 4% | – | – | – | – |
| Cn1ccc(-c2csc(-c3cccnc3)c2)cc1=O [Compound 26] | – | – | – | – | – | 27% | percentage of inhibition Dyrk1A (Dyrk1A): No inhibition; percentage of inhibition Dyrk1B (Dyrk1B): No inhibition |
| c1cncc(-c2cc(-c3ccc4c(c3)CCO4)cs2)c1 [Compound 27] | – | – | – | – | – | 31% | percentage of inhibition Dyrk1A (Dyrk1A): No inhibition; percentage of inhibition Dyrk1B (Dyrk1B): No inhibition |
| c1cncc(-c2cc(-c3cscn3)cs2)c1 [Compound 28] | – | – | 31% | – | 6700 nM | – | – |
| Cn1cncc1-c1csc(-c2cccnc2)c1 [Compound 31] | – | – | 44% | 9100 nM | 5100 nM | – | – |
| c1cncc(-c2cc(-c3cnc4ccccn34)cs2)c1 [Compound 32] | 2200 nM | 0% | – | 600 nM | 400 nM | – | – |
| c1ncc(-c2csc(-c3cncnc3)c2)cn1 [Compound 44] | – | – | 2% | – | – | 27% | inhibition at 5 µM (Dyrk1B): 27% |
| CSc1ncc(-c2csc(-c3cncnc3)c2)cn1 [Compound 45] | – | – | 8% | – | – | -24% | inhibition at 5 µM (Dyrk1B): 20% |
| c1ccc2c(-c3csc(-c4cncnc4)c3)cncc2c1 [Compound 46] | – | – | 9% | – | – | 15% | inhibition at 5 µM (Dyrk1B): 33% |
| c1cncc(-c2csc(-c3cncc4ccccc34)c2)c1 [Compound 47] | 1500 nM | 3% | – | 2400 nM | 1200 nM | – | – |

Further lines, with some results ahead:

| IC50 (Dyrk1A) | inhibition at 5 µM (CK2α) | inhibition at 5 µM (Dyrk1A) | IC50 (Dyrk1B) | IC50 (Dyrk2) | inhibition at 5 µM (Dyrk2; at 5 µM) | Compound | also measured |
| --- | --- | --- | --- | --- | --- | --- | --- |
| 900 nM | 5% | – | 1200 nM | 600 nM | – | Cc1cncc(-c2csc(-c3cccnc3)c2)c1 [Compound 5, 3-methyl-5-[5-(pyridin-3-yl)thiophen-3-yl]pyridine] | melting point: 106 to 107 °C |
| 700 nM | 16% | – | 300 nM | 200 nM | – | COc1cncc(-c2csc(-c3cccnc3)c2)c1 [Compound 8, 3-methoxy-5-[5-(pyridin-3-yl)thiophen-3-yl]pyridine] | melting point: 132 to 133 °C |
| – | 0% | 45% | – | – | – | CCOc1cncc(-c2csc(-c3cccnc3)c2)c1 [Compound 10] | inhibition at 1 µM (Dyrk1B): 6%; inhibition at 1 µM (Dyrk2): 22% |
| 2600 nM | 3% | – | – | – | 44% | N#Cc1cncc(-c2csc(-c3cccnc3)c2)c1 [Compound 13] | inhibition at 5 µM (Dyrk1B): 30% |
| 3100 nM | 0% | – | 5400 nM | 3000 nM | – | FC(F)(F)c1cncc(-c2csc(-c3cccnc3)c2)c1 [Compound 14] | – |
| 900 nM | 0% | – | 1400 nM | 400 nM | – | Fc1cncc(-c2csc(-c3cccnc3)c2)c1 [Compound 15, 3-fluoro-5-[5-(pyridin-3-yl)thiophen-3-yl]pyridine] | melting point: 186 to 187 °C |
| 1200 nM | 14% | – | 1900 nM | 700 nM | – | Clc1cncc(-c2csc(-c3cccnc3)c2)c1 [Compound 16] | – |
| 900 nM | 0% | – | 1100 nM | 900 nM | – | CC(=O)c1cncc(-c2csc(-c3cccnc3)c2)c1 [Compound 17, 1-{5-[5-(pyridin-3-yl)thiophen-3-yl]pyridin-3-yl}ethan-1-one] | melting point: 166 to 167 °C |
| – | – | 0% | – | – | 12% | Clc1cncc(-c2csc(-c3cnco3)c2)c1 [Compound 34] | inhibition at 5 µM (Dyrk1B): 18% |
| 1200 nM | -15% | – | 1100 nM | 1500 nM | – | Cc1cncc(-c2csc(-c3cnco3)c2)c1 [Compound 35] | – |
| – | – | 25% | – | – | 16% | c1ncc(-c2csc(-c3cnco3)c2)cn1 [Compound 36] | inhibition at 5 µM (Dyrk1B): 40% |
| – | – | 7% | – | – | 5% | CSc1ncc(-c2csc(-c3cnco3)c2)cn1 [Compound 37] | inhibition at 5 µM (Dyrk1B): 21% |
| 1500 nM | -20% | – | 2200 nM | 1500 nM | – | c1ncc(-c2cc(-c3cn[nH]c3)cs2)o1 [Compound 38] | – |
| – | – | 20% | 8070 nM | – | 19% | c1ccc2c(-c3csc(-c4cnco4)c3)cncc2c1 [Compound 39] | – |
| – | – | 18% | – | – | 30% | c1cc2cc(-c3csc(-c4cnco4)c3)ccc2[nH]1 [Compound 40] | inhibition at 5 µM (Dyrk1B): 9% |
| – | – | 1% | – | – | 0% | Clc1cncc(-c2csc(-c3cncnc3)c2)c1 [Compound 42] | inhibition at 5 µM (Dyrk1B): 5% |
| 5000 nM | -15% | – | 2200 nM | 3800 nM | – | Cc1cncc(-c2csc(-c3cncnc3)c2)c1 [Compound 43] | – |
